Patent publication US20240285586A1, “METHODS FOR TREATING BACTERIAL CELL POPULATIONS” (THE HONG KONG POLYTECHNIC UNIVERSITY, priority 2021, published 2024)
“And” between values parts separate entries of the source, which are not always exact repeats. Equal values may be shown once. Residues, ends and D or L forms follow the SMILES beside them. *: point of attachment. βNA = c1ccc2cc(N*)ccc2c1

Key:
[1] = tested on: E. coli BW25113 wild type; experiment: Antibiotic accumulation assay (BOCILLIN, flow cytometry), wild type; assay type: cell-based, Escherichia coli; conditions: 24 hrs starvation, BOCILLIN 10 μg/mL
Description: (§1) Antibiotic accumulation assay. The overnight bacteria culture was diluted 100-fold in LB broth and cultivated for about 1 hr until the OD600 value reached 0.2 (exponential phase). Aliquots of this exponential phase culture were washed and re-suspended in saline, cultured at 37° C. under constant shaking (250 rpm) for 24 hrs, followed by addition of CCCP (1 μM). After 5 mins, BOCILLIN™ FL Penicillin (10 μg/mL) was added and incubated at 37° C. with shaking at 250 rpm for 1 hr. Upon washing twice with PBS, fluorescence signal was measured by flow cytometry CytoFLEX (Beckman). Microorganisms were identified by FSC (forward scatter) and SSC (side scatter) parameters. Fluorescence intensity was measured at 488-nm excitation, 525-nm emission.

E. coli ΔpspA = experiment: Antibiotic accumulation assay (BOCILLIN, flow cytometry), ΔpspA; assay type: cell-based, Escherichia coli; conditions: 24 hrs starvation, no CCCP
Description: as §1

S. typhimurium = experiment: Starvation-induced tolerance assay, S. typhimurium; assay type: cell-based
Description: (§2) Tolerance assay. […] Standard serial dilution and plating on LB agar was performed before and after ampicillin treatment for 4 hrs, 2 days, 4 days and 6 days to determine the fraction of the test population that survived at different time points during the course of treatment.
(§3) Standard serial dilution and plating on LB agar was performed on samples collected every 24 hrs to assess changes in the size of the sub-population that survived during the treatment process.
(§4) Upon reaching the exponential phase, bacteria were washed and re-suspended in saline (0.9% NaCl), and then incubated at 37° C. under constant shaking (250 rpm/min) for 24 hrs. […] Standard serial dilution and plating on LB agar were performed before and after ampicillin treatment for 4 hrs, 1 day, 2 days and 4 days to determine the fraction of the test population that survived at different time points during the course of treatment.

K. pneumoniae = experiment: Starvation-induced tolerance assay, K. pneumoniae; assay type: cell-based, Klebsiella pneumoniae
Description: as §2, §3, §4

[2] = general statement; cited from earlier work
E. coli wild type strain = experiment: Assessment of efflux activity (Nile Red); assay type: cell-based, Escherichia coli; conditions: CCCP 100 μM, within 30 mins, increased from ~6500 RFU
Description: Assessment of efflux activity. A10-mL portion of bacterial population which had been subjected to 24 hrs starvation was centrifuged at 6000×g for 5 mins at room temperature. The pellet was re-suspended in PBS containing 1 mM MgCl2(PPB) and adjusted to OD600 0.2. Nile Red which fluoresces only weakly in aqueous solutions but becomes strongly fluorescent in nonpolar environments was added to produce a final concentration of 5 μM followed by incubation at 37° C. for 30 mins, with 250 rpm shaking. CCCP was then added to produce a final concentration of 100 μM; fluorescence was measured for a period of 30 mins by a Clariostar Microplate Reader at an excitation wavelength of 544±10 nm and an emission wavelength of 650±10 nm.

S. aureus = experiment: Starvation-induced tolerance assay, S. aureus; assay type: cell-based, Staphylococcus aureus
Description: as §2, §3, §4

E. coli BW25113 = experiment: Starvation-induced tolerance assay, wild type E. coli; assay type: cell-based, Escherichia coli; conditions: for size of the E. coli population: within 24 hrs
Description: as §2, §3, §4

A. baumannii = experiment: Starvation-induced tolerance assay, A. baumannii; assay type: cell-based, Acinetobacter baumannii
Description: as §2, §3, §4

Gram negative strains = experiment: Minimal inhibitory concentration, Gram negative strains; assay type: cell-based; conditions: all Gram negative test strains
Text: Determination of Minimal Inhibitory Concentrations (MICs).

Escherichia coli BW25113 = experiment: Effect of PAβN on bacterial growth rate; assay type: cell-based; conditions: PAβN 100 μM in LB broth
Description: Assessment of effect of PAβN on bacterial growth rate. The overnight culture of the Escherichia coli BW25113 strain was diluted 1:100 in LB Broth, followed by addition of 100 μM PAβN; a sample in which only saline was added was included as negative control. OD600 value was tested at different time points.

E. coli ΔtolC mutant = experiment: Starvation-induced tolerance assay, ΔtolC knockout; assay type: cell-based, Escherichia coli; conditions: ampicillin for six days
Description: as §2

E. coli BW25113 ΔpspA = assay type: cell-based, Escherichia coli
Description: as §2, §3

E. coli BW25113::ΔnuoI = experiment: Starvation-induced tolerance assay, ΔnuoI knockout; assay type: cell-based, Escherichia coli; conditions: 24 hrs starvation, then six days of ampicillin treatment
Description: as §2

[3] = tested on: E. coli BW25113::ΔndhΔnuoI; experiment: Starvation-induced tolerance assay, ΔndhΔnuoI double knockout; assay type: cell-based, Escherichia coli; conditions: ampicillin for six days
Description: as §2

E. coli tolerant cells = experiment: Scanning electron microscopy of tolerant cells; assay type: cell-based, Escherichia coli; conditions: ampicillin 100 μg/ml and 1000 μg/ml, 24 hours
Description: Electron microscopy analysis. E. coli which had been subjected to starvation for 24 hours were treated with econazole alone, ampicillin alone and a combination of econazole and ampicillin for 24 hours, followed by examination under scanning electron microscopy (SEM). Cells treated with saline were included as negative control. Briefly, bacterial cells were fixed in 0.4% polyoxymethylene overnight and then in Osmium tetroxide (OsO4) for 2 hrs, followed by washing for three times with PBS. The cells were then dehydrated using pure ethanol, and infiltrated and embedded in Spurr resin for examination by SEM.

S. typhimurium PY1 = experiment: Mouse peritonitis infection (tolerance sepsis) model; assay type: in vivo
Description: NIH male mice of about six-weeks-old with body weight of ˜20 g were used, 6 mice per group. The animals were allowed to acclimate to the housing facility for 5 days. The mice were made neutropenic by administering 150 mg/kg cyclophosphamide 3 days and 1 day before infection. Different amounts of S. typhimurium strain PY01 (2.8×10^5 CFU, 7.6×10^5 CFU or 1.5×10^6 CFU) were inoculated into the animals via intraperitoneal injection. The mice were subjected to ceftazidime (20 mg/kg), econazole (20 mg/kg) or ceftazidime combining econazole treatment (i.p.) 24 h after inoculation, at 12 hrs intervals for 72 hrs randomly. The mortality rate of the test mice was recorded every 12 hrs. After 72 h of treatment, live mice were euthanized and subjected to peritoneal washes which involved injection of 2 mL of saline into the intraperitoneal space, followed by abdominal massage. The abdomen was then cut open and 200 μL of peritoneal fluid were collected and serially diluted in saline. A 100 μL portion of each dilution was spread on LB plates, followed by incubation overnight at 37° C. Colonies were counted to determine the bacterial load in the test samples, which were expressed as CFU/ml. Statistical analysis and ethic approval were the same as described above.

E. coli J53 (mcr-1) = experiment: MIC of colistin in presence and absence of compound, broth dilution; assay type: cell-based, Escherichia coli; conditions: antibiotic resistant E. coli (FIG. 20)
E. coli = experiment: Membrane potential assay DiSC3(5), E. coli; assay type: cell-based, Escherichia coli; conditions: valinomycin 1 μM, positive control, exponential phase
Description: Membrane potential assay. The transmembrane electrical potential was measured by using a membrane potential-sensitive probe, DiSC3(5). Bacterial population in either the exponential phase (OD600 of 0.2) or under 24 hrs starvation (resuspended in saline) were collected by centrifugation (6000×g, 2 mins), washed twice and re-suspended in PBS (pH 7.4), and then adjusted to OD600 of 0.2. KCl and DiSC3(5) were added until final concentration of 100 mM and 1 μM was respectively reached, followed by incubation at room temperature for 25 mins in the dark to allow the dye to penetrate through the outer membrane and produce a quenching effect. […] The fluorescence reading was monitored by using a Clariostar Microplate Reader (BMG LABTECH) at an excitation wavelength of 622±10 nm and an emission wavelength of 670±10 nm for 10 mins. Upon depolarization, the dye was rapidly released into the medium, resulting in dequenching and facilitating detection fluorometrically. […] The sample preparation method is same as that prior to testing with the Microplate Reader except for the last step. Briefly, cells were washed with PBS three times before confocal observation to remove extracellular DiSC3(5) dye. […] DiSC3(5) was excited by 638 nm laser and fluorescence was detected by HyD detector at emission wavelength 675±25 nm. The images were acquired and analyzed by the Leica Application Suite X (LAS X) software. […]

[4] = tested on: E. coli BW25113 and its ΔpspA derivative; experiment: Membrane permeability assay (SYTOX Green); assay type: cell-based, Escherichia coli; conditions: colistin, positive control; similar in wild type and ΔpspA
Description: Membrane permeability assay. The membrane permeability or integrity of the test organisms was measured using SYTOX Green (ThermoFisher), which can enter the cell through damaged cell membrane and bind to nucleic acid, generating fluorescence signal. E. coli BW25113 and its ΔpspA derivative at a concentration of OD600 of 0.2, which had been subjected to 24 hrs starvation, were collected by centrifugation (6000×g, 2 mins), washed twice and re-suspended in saline. SYTOX Green was then added to give a final concentration of 1 μM, followed by incubation for 30 min in the dark at room temperature. The relative fluorescence signal in the wild type and ΔpspA strain was measured by a Cary Eclipse Fluorescence Spectrophotometer (Agilent), with an excitation wavelength of 488±10 nm and an emission wavelength of 523±10 nm.

[5] = CCCP 100 μM, absence of ampicillin
[6] = low concentration of CCCP + 10×MIC ampicillin

## Cc1cc(C)n2c1C=C1C=CC(CCC(=O)Nc3ccc(OCC(=O)N[C@@H]4C(=O)N5[C@@H]4SC(C)(C)[C@@H]5C(=O)[O-])cc3)=[N+]1[B-]2(F)F.[Na+] [BOCILLIN]
[1]; absence of CCCP
  cells exhibiting high BOCILLIN intensity (>10^3 RFU): 10.45%
E. coli ΔpspA
  cells that exhibited high BOCILLIN level: 18.52%

## N#CC(C#N)=NNc1cccc(Cl)c1 [CCCP, carbonyl cyanide-m-chlorophenylhydrazone]
[1]; CCCP (1 μM) treatment
  cells exhibiting high BOCILLIN intensity (>10^3 RFU): 97.86%
S. typhimurium; [5]
  eradication of tolerant cells: could eradicate tolerant bacteria cells
S. typhimurium; [6]
  effect on phenotypic ampicillin tolerance: sufficient to suppress or even completely abolish phenotypic ampicillin tolerance
K. pneumoniae; [5]
  eradication of tolerant cells: could eradicate tolerant bacteria cells
K. pneumoniae; [6]
  effect on phenotypic ampicillin tolerance: sufficient to suppress or even completely abolish phenotypic ampicillin tolerance
[2]
  toxicity or safety in human: toxic to human
E. coli wild type strain
  Nile Red fluorescence intensity: ~10000 RFU
S. aureus; [5]
  eradication of tolerant cells: could eradicate tolerant bacteria cells
S. aureus; [6]
  effect on phenotypic ampicillin tolerance: sufficient to suppress or even completely abolish phenotypic ampicillin tolerance
E. coli BW25113; CCCP 1 μM + ampicillin, […], after 24 hrs starvation
  population size: ~80 cells/mL
E. coli BW25113; CCCP 1 μM + ciprofloxacin 0.5 μg/mL
  tolerance to ciprofloxacin: not affected
E. coli BW25113; CCCP 1 μM + gentamicin 10 μg/mL
  phenotypic tolerance to gentamicin upon PMF dissipation: cannot be maintained
E. coli BW25113; CCCP 1 μM alone, […], after 24 hrs starvation
  size of the surviving population: remained unchanged
E. coli BW25113; CCCP 100 μM + ampicillin
  size of the E. coli population: ~2×10^4 cells/mL
E. coli BW25113; CCCP 100 μM alone, from ~2.5×10^7 cells/mL
  size of the E. coli population: ~5×10^5 cells/mL
E. coli BW25113; CCCP 100 μM with ampicillin
  time to eradication of the entire antibiotic tolerant population: ≤ 48 h
E. coli BW25113; CCCP 100 μM without ampicillin
  time to eradication of the entire antibiotic tolerant population: ≤ 48 h
E. coli BW25113; CCCP (100 μM) + ampicillin
  killing effect compared with CCCP alone: significantly stronger
E. coli BW25113; CCCP (concentration not stated) and ampicillin, six days
  entire tolerant cell population: ~50 cells/mL
E. coli BW25113; CCCP alone (100 μM)
  killing of bacterial tolerant cells: kill bacterial tolerant cells
A. baumannii; [5]
  eradication of tolerant cells: could eradicate tolerant bacteria cells
A. baumannii; [6]
  effect on phenotypic ampicillin tolerance: sufficient to suppress or even completely abolish phenotypic ampicillin tolerance
Gram negative strains
  MIC: > 160 µM

## N=C(N)NCCC[C@H](NC(=O)[C@@H](N)Cc1ccccc1)C(=O)Nc1ccc2ccccc2c1 [PAβN] (H-Phe-Arg-βNA)
Escherichia coli BW25113
  effect on bacterial growth: did not exert any negative effect on bacterial growth

## CC1(C)S[C@@H]2[C@H](NC(=O)[C@H](N)c3ccccc3)C(=O)N2[C@H]1C(=O)O [ampicillin]
E. coli ΔtolC mutant
  size of the tolerant population: ~5×10^4 cells/mL
E. coli BW25113 ΔpspA; 24 hrs starvation, then ampicillin 100 μg/mL for 6 days
  size of the antibiotic tolerant sub-population: ~3×10^5 cells/mL
E. coli BW25113 ΔpspA; after 6 days of ampicillin treatment
  tolerant sub-population relative to that of wild type: 10%
E. coli BW25113::ΔnuoI
  population size: ~3.5×10^5 cell/mL
[3]
  reduction of the tolerant population: ~10^4 fold
  size of the tolerant population: ~200 cells/mL
E. coli BW25113; wild type, 24 hrs starvation, then ampicillin 100 μg/mL (~10×MIC) for 6 days
  size of the antibiotic tolerant sub-population: 4×10^6 cells/mL and ~2.5×10^7 cells/mL
E. coli tolerant cells
  cell morphology under SEM: slight shrinkage in the pole areas

## CC(C)(O/N=C(\C(=O)N[C@@H]1C(=O)N2C(C(=O)[O-])=C(C[n+]3ccccc3)CS[C@H]12)c1csc(N)n1)C(=O)O [ceftazidime]
S. typhimurium; ceftazidime alone (100 μg/ml), 96 hrs (FIG. 16F)
  size of the tolerant population: ~1.4×10^7 CFU/mL
S. typhimurium PY1; ceftazidime alone 20 mg/kg, 1.5×10^6 CFU
  infected mice rescued: 10%
S. typhimurium PY1; ceftazidime alone 20 mg/kg, inoculation of 7.6×10^5 CFU
  protection of the test animals from death: could protect the test animals from being killed
S. typhimurium PY1; ceftazidime only 20 mg/kg, lower inoculum (FIG. 19F), P=0.0004
  rate of eradication of PY1 tolerant sub-population compared with the econazole and ceftazidime combination: significantly slower

## C=CCOC(Cn1ccnc1)c1ccc(Cl)cc1Cl (stereo not drawn) [enilconazole]
E. coli J53 (mcr-1)
  effect of co-administration with colistin: bactericidal synergistic effect

## N#C/C(=C1/SC[C@@H](c2ccc(Cl)cc2Cl)S1)n1ccnc1 [lulionazole]
E. coli J53 (mcr-1)
  effect of co-administration with colistin: bactericidal synergistic effect

## Clc1ccc(COC(Cn2ccnc2)c2ccc(Cl)cc2Cl)c(Cl)c1 (stereo not drawn) [miconazole]
E. coli J53 (mcr-1)
  effect of co-administration with colistin: bactericidal synergistic effect

## Clc1ccc(C(Cn2ccnc2)OCc2csc3c(Cl)cccc23)c(Cl)c1 (stereo not drawn) [sertaconazole]
E. coli J53 (mcr-1)
  effect of co-administration with colistin: bactericidal synergistic effect

## Clc1ccc(C(Cn2ccnc2)OCc2ccsc2Cl)c(Cl)c1 (stereo not drawn) [tioonazole]
E. coli J53 (mcr-1)
  effect of co-administration with colistin: bactericidal synergistic effect

## CC(C)[C@@H]1NC(=O)[C@H](C)OC(=O)[C@@H](C(C)C)NC(=O)[C@@H](C(C)C)OC(=O)[C@H](C(C)C)NC(=O)[C@H](C)OC(=O)[C@@H](C(C)C)NC(=O)[C@@H](C(C)C)OC(=O)[C@H](C(C)C)NC(=O)[C@H](C)OC(=O)[C@@H](C(C)C)NC(=O)[C@@H](C(C)C)OC1=O [valinomycin]
E. coli
  effect on membrane potential (DiSC3(5) fluorescence): caused dissipation of membrane potential

## colistin
[4]
  effect on membrane permeability (SYTOX Green): cause membrane damage and an eventual increase in membrane permeability
